Source: PubChem BioAssay AID2060501 (Molecular Pharmacology Branch, DTP, NCI, 2025)
Values belong to the compound of their own block, whether it stands above or below them.

Tested on: 282377-053-R-J1-PDC complex spheroids, viability
Experiment: Anticancer human tumor 282377-053-R-J1-PDC patient-derived colon adenocarcinoma cell line growth inhibition [GQUAD]
Conditions: for IC50: curve of first compound; for viability, T/C: stronger effect = lower value
Outline: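 Multi-cell-type spheroids of tumor cells with HUVEC and mesenchymal stem cells, treated with drug combinations. Concentrations descend in half-log steps from near clinical Cmax, or from 10 microM where Cmax is unknown; viability read-out.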

[1] = second compound 0.0316 µM, first compound 0.0316 µM
[2] = second compound 0.0316 µM, first compound 0.1 µM
[3] = second compound 0.0316 µM, first compound 0.316 µM
[4] = second compound 0.0316 µM, first compound 1 µM
[5] = second compound 0.0316 µM, first compound 3.16 µM
[6] = second compound 0.0316 µM, first compound 10 µM
[7] = second compound 0.1 µM, first compound 0.0316 µM
[8] = second compound 0.1 µM, first compound 0.1 µM
[9] = second compound 0.1 µM, first compound 0.316 µM
[10] = second compound 0.1 µM, first compound 1 µM
[11] = second compound 0.1 µM, first compound 3.16 µM
[12] = second compound 0.1 µM, first compound 10 µM
[13] = second compound 0.316 µM, first compound 0.0316 µM
[14] = second compound 0.316 µM, first compound 0.1 µM
[15] = second compound 0.316 µM, first compound 0.316 µM
[16] = second compound 0.316 µM, first compound 1 µM
[17] = second compound 0.316 µM, first compound 3.16 µM
[18] = second compound 0.316 µM, first compound 10 µM
[19] = second compound 1 µM, first compound 0.0316 µM
[20] = second compound 1 µM, first compound 0.1 µM
[21] = second compound 1 µM, first compound 0.316 µM
[22] = second compound 1 µM, first compound 1 µM
[23] = second compound 1 µM, first compound 3.16 µM
[24] = second compound 1 µM, first compound 10 µM
[25] = second compound 3.16 µM, first compound 0.0316 µM
[26] = second compound 3.16 µM, first compound 0.1 µM
[27] = second compound 3.16 µM, first compound 0.316 µM
[28] = second compound 3.16 µM, first compound 1 µM
[29] = second compound 3.16 µM, first compound 3.16 µM
[30] = second compound 3.16 µM, first compound 10 µM
[31] = second compound 10 µM, first compound 0.0316 µM
[32] = second compound 10 µM, first compound 0.1 µM
[33] = second compound 10 µM, first compound 0.316 µM
[34] = second compound 10 µM, first compound 1 µM
[35] = second compound 10 µM, first compound 3.16 µM
[36] = second compound 10 µM, first compound 10 µM
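Further: spheroids exposed to compounds for 7 days before readout.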
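Wherever viability, T/C is given: percent of vehicle DMSO control viability with 100% = untreated-like growth.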

IC50 (second compound 0.0316 µM): 970 nM
IC50 (second compound 0.1 µM): 794 nM
IC50 (second compound 0.316 µM): 545 nM
IC50 (second compound 1 µM): 331 nM
IC50 (second compound 3.16 µM): 297 nM
IC50 (second compound 10 µM): < 31.6 nM
Structure (SMILES): COc1cccc2c1C(=O)c1c(O)c3c(c(O)c1C2=O)CC(O)(C(=O)CO)CC3OC1CC(N)C(O)C(C)O1 (stereo unspecified) + Cc1cnc(CNC(=O)c2c(=O)c3ccc(N4CCCN(C)CC4)nc3n3c2sc2ccccc23)cn1
viability, T/C [1]: 140%
viability, T/C [2]: 118%
viability, T/C [3]: 83.6%
viability, T/C [4]: 55.6%
viability, T/C [5]: 11.3%
viability, T/C [6]: 1.72%
viability, T/C [7]: 99.8%
viability, T/C [8]: 97.5%
viability, T/C [9]: 82%
viability, T/C [10]: 41.1%
viability, T/C [11]: 13.1%
viability, T/C [12]: 1.51%
viability, T/C [13]: 91.6%
viability, T/C [14]: 95.1%
viability, T/C [15]: 55.5%
viability, T/C [16]: 38.9%
viability, T/C [17]: 11.9%
viability, T/C [18]: 1%
viability, T/C [19]: 68.2%
viability, T/C [20]: 59.6%
viability, T/C [21]: 44.3%
viability, T/C [22]: 44.8%
viability, T/C [23]: 8.25%
viability, T/C [24]: 0.83%
viability, T/C [25]: 56.4%
viability, T/C [26]: 62%
viability, T/C [27]: 41.3%
viability, T/C [28]: 40.1%
viability, T/C [29]: 8.56%
viability, T/C [30]: 0.74%
viability, T/C [31]: 54.4%
viability, T/C [32]: 46.4%
viability, T/C [33]: 47%
viability, T/C [34]: 39.9%
viability, T/C [35]: 2.37%
viability, T/C [36]: 0.53%

Structure (SMILES): CC[C@@]1(O)C(=O)OCc2c1cc1n(c2=O)Cc2cc3c(CN(C)C)c(O)ccc3nc2-1 + Cc1[nH]c2ccc(F)cc2c1-c1nc2c3cccnc3c3ncccc3c2[nH]1
IC50 (second compound 0.0316 µM): > 316 nM
IC50 (second compound 0.1 µM): > 316 nM
IC50 (second compound 0.316 µM): > 316 nM
IC50 (second compound 1 µM): > 316 nM
IC50 (second compound 3.16 µM): 130 nM
IC50 (second compound 10 µM): < 0.999 nM
viability, T/C (second compound 0.0316 µM, first compound 0.000999 µM): 92.6%
viability, T/C (second compound 0.0316 µM, first compound 0.00316 µM): 117%
viability, T/C (second compound 0.0316 µM, first compound 0.00999 µM): 116%
viability, T/C [1]: 93.1%
viability, T/C (second compound 0.0316 µM, first compound 0.0999 µM): 91.5%
viability, T/C [3]: 49.9%
viability, T/C (second compound 0.1 µM, first compound 0.000999 µM): 126%
viability, T/C (second compound 0.1 µM, first compound 0.00316 µM): 93.2%
viability, T/C (second compound 0.1 µM, first compound 0.00999 µM): 87.1%
viability, T/C [7]: 92%
viability, T/C (second compound 0.1 µM, first compound 0.0999 µM): 93.2%
viability, T/C [9]: 58.8%
viability, T/C (second compound 0.316 µM, first compound 0.000999 µM): 80.3%
viability, T/C (second compound 0.316 µM, first compound 0.00316 µM): 104%
viability, T/C (second compound 0.316 µM, first compound 0.00999 µM): 103%
viability, T/C [13]: 94.2%
viability, T/C (second compound 0.316 µM, first compound 0.0999 µM): 84%
viability, T/C [15]: 61.9%
viability, T/C (second compound 1 µM, first compound 0.000999 µM): 86.6%
viability, T/C (second compound 1 µM, first compound 0.00316 µM): 109%
viability, T/C (second compound 1 µM, first compound 0.00999 µM): 94.8%
viability, T/C [19]: 102%
viability, T/C (second compound 1 µM, first compound 0.0999 µM): 94.8%
viability, T/C [21]: 54.3%
viability, T/C (second compound 3.16 µM, first compound 0.000999 µM): 77.8%
viability, T/C (second compound 3.16 µM, first compound 0.00316 µM): 79.4%
viability, T/C (second compound 3.16 µM, first compound 0.00999 µM): 81.4%
viability, T/C [25]: 58.3%
viability, T/C (second compound 3.16 µM, first compound 0.0999 µM): 64%
viability, T/C [27]: 24.5%
viability, T/C (second compound 10 µM, first compound 0.000999 µM): 36.6%
viability, T/C (second compound 10 µM, first compound 0.00316 µM): 35.9%
viability, T/C (second compound 10 µM, first compound 0.00999 µM): 48.3%
viability, T/C [31]: 41.5%
viability, T/C (second compound 10 µM, first compound 0.0999 µM): 31.3%
viability, T/C [33]: 17.5%

Structure (SMILES): COc1ncnc(C2CC2)c1-c1ncc2cnn(Cc3ccc(-c4nc(C(F)(F)F)cn4C(C)C)cc3)c2n1 + Cc1[nH]c2ccc(F)cc2c1-c1nc2c3cccnc3c3ncccc3c2[nH]1
IC50 (second compound 0.0316 µM): 5700 nM
IC50 (second compound 0.1 µM): 5930 nM
IC50 (second compound 0.316 µM): 5900 nM
IC50 (second compound 1 µM): 5460 nM
IC50 (second compound 3.16 µM): 4130 nM
IC50 (second compound 10 µM): 3360 nM
viability, T/C [1]: 97.6%
viability, T/C [2]: 103%
viability, T/C [3]: 91.9%
viability, T/C [4]: 99.4%
viability, T/C [5]: 97.1%
viability, T/C [6]: 5.07%
viability, T/C [7]: 88.5%
viability, T/C [8]: 107%
viability, T/C [9]: 114%
viability, T/C [10]: 110%
viability, T/C [11]: 101%
viability, T/C [12]: 7.94%
viability, T/C [13]: 103%
viability, T/C [14]: 88.3%
viability, T/C [15]: 111%
viability, T/C [16]: 117%
viability, T/C [17]: 96.3%
viability, T/C [18]: 10.5%
viability, T/C [19]: 97.1%
viability, T/C [20]: 97.2%
viability, T/C [21]: 113%
viability, T/C [22]: 115%
viability, T/C [23]: 89.5%
viability, T/C [24]: 6.2%
viability, T/C [25]: 85.5%
viability, T/C [26]: 79.5%
viability, T/C [27]: 93.2%
viability, T/C [28]: 82.6%
viability, T/C [29]: 63.2%
viability, T/C [30]: 6.71%
viability, T/C [31]: 48.1%
viability, T/C [32]: 30.1%
viability, T/C [33]: 76.9%
viability, T/C [34]: 54.2%
viability, T/C [35]: 53.4%
viability, T/C [36]: 5.55%
